The compounds below were run against T1, human GPR119 (hGPR119) (Homo sapiens, UniProt Q8TDV5) (assay: cAMP accumulation assay in CHO-K1 cells stably expressing hGPR119). Conditions: cAMP HTRF, 60 minutes.
T1 construct: expressed in transfected cells; host or cells: CHO-K1
T1 sequence (Q8TDV5 1-335): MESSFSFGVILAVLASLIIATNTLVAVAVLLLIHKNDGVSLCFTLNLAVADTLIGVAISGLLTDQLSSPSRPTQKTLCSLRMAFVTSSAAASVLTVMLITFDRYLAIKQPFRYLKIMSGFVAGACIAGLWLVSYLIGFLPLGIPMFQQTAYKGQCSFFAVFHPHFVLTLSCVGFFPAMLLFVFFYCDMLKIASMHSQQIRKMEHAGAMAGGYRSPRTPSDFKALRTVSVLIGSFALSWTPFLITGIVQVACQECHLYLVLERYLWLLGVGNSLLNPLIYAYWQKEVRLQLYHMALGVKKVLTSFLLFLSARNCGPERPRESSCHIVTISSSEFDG
Format: cell-based
Experimental: CHO-K1 cells stably expressing human GPR119 (hGPR119) were prepared by transfection of a GPR119-carrying plasmid using Lipofectamine 2000 (following manufacturer instructions). A stable cell line was established using the limiting dilution method with geneticine selection. Assay-ready frozen (ARF) cells were prepared and used throughout the study.
The assay was performed in a 384-well plate format using the CAMP Gs dynamic assay kit from Cisbio. ARF cells expressing hGPR119 were thawed, washed and then resuspended in CAMP stimulation buffer at a cell density of 1.1×10^6 cells/mL. Cells were plated at a density of ~10,000 cells/well (9 μL/well). Dose response curves for the tested compounds were prepared in a cAMP stimulation buffer, containing 0.1% Tween 80 at 4 fold the final concentration. The compounds were then transferred to the cell plates using BRAVO (3 μL/well) and the plates were incubated for 60 minutes at 37° C./5% CO2. Detection buffer (10 μL, prepared as described in the CAMP Gs dynamic kit) were added to each well, and the plates were incubated at ambient temperature for 1 hr.
RT-FRET was measured using a ClarioSTAR plate reader, calculating the ratio between emissions at 665 nm and 620 nm (HTRF ratio). The HTRF ratio for positive (Max) and negative (Min) controls were used to normalize HTRF data and generate values for % activity. EC50 and Max activity values were determined using a standard 4-parameter fit.

Row | EC50 | Compound
1 | 100 to 1000 nM | O=C(NCCO[C@H]1O[C@H](CO)[C@@H](O)[C@H](O)[C@@H]1O)C1CN(C(=O)Cc2ccc(OCCCC3CCN(c4ncc(Cl)cn4)CC3)cc2F)C1 (racemic) [Compound A6, 1-[2-[4-[3-[1-(5-chloropyrimidin-2-yl)-4-piperidyl]propoxy]-2-fluoro-phenyl]acetyl]-N-[2-[rac-(2S,3S,4S,5S,6R)-3,4,5-trihydroxy-6-(hydroxymethyl)tetrahydropyran-2-yl]oxyethyl]azetidine-3-carboxamide]
2 | 100 to 1000 nM | O=C(NC[C@H](O)[C@@H](O)[C@H](O)[C@H](O)CO)C1CN(C(=O)Cc2ccc(OCCCC3CCN(c4ncc(Cl)cn4)CC3)cc2F)C1 (racemic) [Compound A10, 1-[2-[4-[3-[1-(5-chloropyrimidin-2-yl)-4-piperidyl]propoxy]-2-fluoro-phenyl]acetyl]-N-[rac-(2S,3R,4R,5R)-2,3,4,5,6-pentahydroxyhexyl]azetidine-3-carboxamide]
3 | 100 to 1000 nM | O=C(CC1CN(C(=O)Cc2ccc(OCCCC3CCN(c4ncc(Cl)cn4)CC3)cc2F)C1)NC[C@H](O)[C@@H](O)[C@H](O)[C@H](O)CO (racemic) [Compound A11, 2-[1-[2-[4-[3-[1-(5-chloropyrimidin-2-yl)-4-piperidyl]propoxy]-2-fluoro-phenyl]acetyl]azetidin-3-yl]-N-[rac-(2S,3R,4R,5R)-2,3,4,5,6-pentahydroxyhexyl]acetamide]
4 | 100 to 1000 nM | COCc1cnc(N2CCC(CCCOc3ccc(CC(=O)N4CC(C(=O)NC[C@H](O)[C@@H](O)[C@H](O)[C@H](O)CO)C4)c(F)c3)CC2)nc1 (racemic) [Compound A12, 1-[2-[2-fluoro-4-[3-[1-[5-(methoxymethyl)pyrimidin-2-yl]-4-piperidyl]propoxy]phenyl]acetyl]-N-[rac-(2S,3R,4R,5R)-2,3,4,5,6-pentahydroxyhexyl]azetidine-3-carboxamide]
5 | 100 to 1000 nM | O=C(Cc1ccc(OCCCC2CCN(c3ncc(Cl)cn3)CC2)cc1F)N1CC(CN[C@@H]2C[C@H](O)[C@@H](O)[C@H]2O)C1 (racemic) [Compound A21, 2-[4-[3-[1-(5-chloropyrimidin-2-yl)-4-piperidyl]propoxy]-2-fluoro-phenyl]-1-[3-[[[rac-(1R,2S,3R,4S)-2,3,4-trihydroxycyclopentyl]amino]methyl]azetidin-1-yl]ethanone]
6 | 100 to 1000 nM | COc1cnc(N2CCC(CCCOc3ccc(CC(=O)N4CC(CNC[C@H](O)[C@@H](O)[C@H](O)[C@H](O)CO)C4)c(F)c3)CC2)nc1 (racemic) [Compound A49, 2-[2-fluoro-4-[3-[1-(5-methoxypyrimidin-2-yl)-4-piperidyl]propoxy]phenyl]-1-[3-[rac-(2S,3R,4R,5R)-2,3,4,5,6-pentahydroxyhexyl]amino]methyl]azetidin-1-yl]ethanone]
7 | 100 to 1000 nM | CCOc1cnc(N2CCC(CCCOc3ccc(CC(=O)N4CC(CNC[C@H](O)[C@@H](O)[C@H](O)[C@H](O)CO)C4)c(F)c3)CC2)nc1 (racemic) [Compound A50, 2-[4-[3-[1-(5-ethoxypyrimidin-2-yl)-4-piperidyl]propoxy]-2-fluoro-phenyl]-1-[3-[[[rac-(2S,3R,4R,5R)-2,3,4,5,6-pentahydroxyhexyl]amino]methyl]azetidin-1-yl]ethanone]
8 | ≤ 100 nM | O=C(Cc1ccc(OCCCC2CCN(c3ncc(Cl)cn3)CC2)cc1F)N1CC(CN2C[C@H](O)[C@@H](O)C2)C1 (stereo in doubt) [Compound A18, 2-[4-[3-[1-(5-chloropyrimidin-2-yl)-4-piperidyl]propoxy]-2-fluoro-phenyl]-1-[3-[[rac-(3S,4S)-3,4-dihydroxypyrrolidin-1-yl]methyl]azetidin-1-yl]ethanone]
9 | ≤ 100 nM | O=C(Cc1ccc(OCCCC2CCN(c3ncc(Cl)cn3)CC2)cc1F)N1CC(CN2C[C@@H](O)[C@H](O)C2)C1 (stereo in doubt) [Compound A19, 2-[4-[3-[1-(5-chloropyrimidin-2-yl)-4-piperidyl]propoxy]-2-fluoro-phenyl]-1-[3-[[rac-(3R,4R)-3,4-dihydroxypyrrolidin-1-yl]methyl]azetidin-1-yl]ethanone]
10 | ≤ 100 nM | O=C(NC(CO)(CO)CO)C1CN(C(=O)Cc2c(F)cc(OCCCC3CCN(c4ncc(Cl)cn4)CC3)cc2F)C1 [Compound A1, 1-[2-[4-[3-[1-(5-chloropyrimidin-2-yl)-4-piperidyl]propoxy]-2,6-difluoro-phenyl]acetyl]-N-[2-hydroxy-1,1-bis(hydroxymethyl)ethyl]azetidine-3-carboxamide]
11 | 100 to 1000 nM | O=C(NC(CO)CO)C1CN(C(=O)Cc2ccc(OCCCC3CCN(c4ncc(Cl)cn4)CC3)cc2F)C1 [Compound A3, 1-[2-[4-[3-[1-(5-chloropyrimidin-2-yl)-4-piperidyl]propoxy]-2-fluoro-phenyl]acetyl]-N-[2-hydroxy-1-(hydroxymethyl)ethyl]azetidine-3-carboxamide]
12 | ≤ 100 nM | O=C(NC(CO)(CO)CO)C1CN(C(=O)Cc2ccc(OCCCC3CCN(c4ncc(Cl)cn4)CC3)cc2F)C1 [Compound A4, 1-[2-[4-[3-[1-(5-chloropyrimidin-2-yl)-4-piperidyl]propoxy]-2-fluoro-phenyl]acetyl]-N-[2-hydroxy-1,1-bis(hydroxymethyl)ethyl]azetidine-3-carboxamide]
13 | ≤ 100 nM | O=C(NCC(O)(CO)CO)C1CN(C(=O)Cc2ccc(OCCCC3CCN(c4ncc(Cl)cn4)CC3)cc2F)C1 [Compound A5, 1-[2-[4-[3-[1-(5-chloropyrimidin-2-yl)-4-piperidyl]propoxy]-2-fluoro-phenyl]acetyl]-N-[2,3-dihydroxy-2-(hydroxymethyl)propyl]azetidine-3-carboxamide]
14 | 100 to 1000 nM | O=C(CC1CN(C(=O)Cc2ccc(OCCCC3CCN(c4ncc(Cl)cn4)CC3)cc2F)C1)NC(CO)(CO)CO [Compound A7, 2-[1-[2-[4-[3-[1-(5-chloropyrimidin-2-yl)-4-piperidyl]propoxy]-2-fluoro-phenyl]acetyl]azetidin-3-yl]-N-[2-hydroxy-1,1-bis(hydroxymethyl)ethyl]acetamide]
15 | 100 to 1000 nM | O=C(CC1CN(C(=O)Cc2ccc(OCCCC3CCN(c4ncc(Cl)cn4)CC3)cc2F)C1)NCC(O)(CO)CO [Compound A8, 2-[1-[2-[4-[3-[1-(5-chloropyrimidin-2-yl)-4-piperidyl]propoxy]-2-fluoro-phenyl]acetyl]azetidin-3-yl]-N-[2,3-dihydroxy-2-(hydroxymethyl)propyl]acetamide]
16 | ≤ 100 nM | O=C(CC1CN(C(=O)Cc2c(F)cc(OCCCC3CCN(c4ncc(Cl)cn4)CC3)cc2F)C1)NCC(O)(CO)CO [Compound A9, 2-[1-[2-[4-[3-[1-(5-chloropyrimidin-2-yl)-4-piperidyl]propoxy]-2,6-difluoro-phenyl]acetyl]azetidin-3-yl]-N-[2,3-dihydroxy-2-(hydroxymethyl)propyl]acetamide]
17 | 100 to 1000 nM | O=C(Cc1ccc(OCCCC2CCN(c3ncc(Cl)cn3)CC2)cc1F)N1CC(CNC[C@H](O)[C@@H](O)[C@H](O)[C@H](O)CO)C1 [Compound A14, 2-[4-[3-[1-(5-chloropyrimidin-2-yl)-4-piperidyl]propoxy]-2-fluoro-phenyl]-1-[3-[[[(2S,3R,4R,5R)-2,3,4,5,6-pentahydroxyhexyl]amino]methyl]azetidin-1-yl]ethanone]

Row | Compound | EC50
18 | 1-[2-[2-fluoro-4-[3-[1-[5- (methoxymethyl)pyrimidin-2-yl]-4- piperidyl]propoxy]phenyl]acetyl]-N-[2-[2- hydroxy-1,1- bis(hydroxymethyl)ethyl]carbamoylamino] ethyl]azetidine-3-carboxamide [Compound A2] | 100 to 1000 nM

From patent publication US20260191858A1, “COMBINATION THERAPIES” (Kallyope, Inc., priority 2022, published 2026)
